# Counter-ions that a name gives are not always drawn.
# Legend:
# HGS tumor model = test: Anti-tumor activity in HGS tumor model; format: in vivo; details: animals treated with 20/kg of compound, day 42 after inoculation (vehicle 645)
# From the text: […]
# ENPP1 [1] = molecular target: T1, ENPP1 (Homo sapiens, UniProt P22413); test: Measurement of 2′3′-cGAMP hydrolysis by ENPP1 (AMP-Glo)
# T1 sequence (P22413 1-925): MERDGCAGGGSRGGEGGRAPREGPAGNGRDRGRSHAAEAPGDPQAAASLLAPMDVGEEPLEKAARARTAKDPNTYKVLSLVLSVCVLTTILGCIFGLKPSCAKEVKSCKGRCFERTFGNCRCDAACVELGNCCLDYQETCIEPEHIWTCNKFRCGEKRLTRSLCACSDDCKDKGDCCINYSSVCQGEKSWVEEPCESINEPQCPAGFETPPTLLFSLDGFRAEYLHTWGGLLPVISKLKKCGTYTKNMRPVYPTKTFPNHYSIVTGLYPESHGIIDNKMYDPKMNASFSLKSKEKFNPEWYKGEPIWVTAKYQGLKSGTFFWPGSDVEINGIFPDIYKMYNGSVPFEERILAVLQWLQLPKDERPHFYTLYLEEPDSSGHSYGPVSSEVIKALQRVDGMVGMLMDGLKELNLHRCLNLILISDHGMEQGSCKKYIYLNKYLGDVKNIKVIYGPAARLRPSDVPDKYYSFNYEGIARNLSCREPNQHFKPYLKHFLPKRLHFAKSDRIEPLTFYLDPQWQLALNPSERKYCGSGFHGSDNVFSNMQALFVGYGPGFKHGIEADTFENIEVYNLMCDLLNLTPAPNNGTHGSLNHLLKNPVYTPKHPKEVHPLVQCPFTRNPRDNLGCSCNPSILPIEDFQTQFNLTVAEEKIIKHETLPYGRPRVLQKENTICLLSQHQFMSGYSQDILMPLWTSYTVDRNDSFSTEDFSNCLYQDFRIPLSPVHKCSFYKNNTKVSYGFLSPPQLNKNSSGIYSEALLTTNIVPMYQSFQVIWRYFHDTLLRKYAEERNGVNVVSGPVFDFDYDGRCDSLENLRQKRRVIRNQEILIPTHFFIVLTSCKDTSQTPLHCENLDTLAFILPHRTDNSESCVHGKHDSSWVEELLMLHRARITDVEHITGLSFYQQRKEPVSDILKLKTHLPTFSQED
# Description: Then, 15 μl of the ENPP1/Compound incubation was transferred to the 200 μM 2′3′-cGAMP solution to initiate the reaction. The 30 μl mixture was incubated for 30 min at 25° C. […] After 30 min the reaction was stopped by heating at 90° C. for 3 min.
# Third, now the Promega AMP-Glo kit was used to detect 5′-AMP production as a measurement of ENPP1 enzyme activity. To do this, 10 μl of the above mentioned 30 μl total reaction per sample was transferred into 384 well white solid assay plate for measurement of 5′-AMP production. For each well, 10 μl of AMP-Glo Reagent I was added, mixed well, and incubated for 1 hour at 25° C. At this time AMP detection solution was prepared and 20 μl was added per well, and the resulting solution was incubated for 1 hr at 25° C. Duplicates were run for each inhibitor concentration. Luminescence signal (relative luminescence units, RLU) was recorded using a PerkinElmer 2300 Enspire multimode plate reader.
# IC50 values of compounds were determined by loading compound concentration data and percent inhibition values into GraphPad Prism (GraphPad Prism version 7.0 for Windows, GraphPad Software, La Jolla Calif. USA, www.graphpad.com) and conducted a Sigmoidal variable slope nonlinear regression fitting.
# ENPP1 [2] = molecular target: T1, ENPP1; test: Measurement of pNP-TMP hydrolysis by ENPP1; format: biochemical; details: substrate pNP-TMP, (S) 500 μM, KM 232 μM; Ki from IC50 by Cheng-Prusoff
# Description: p-Nitrophenyl thymidine 5′-monophosphate (pNP-TMP) is a synthesized substrate for ENPP1. The ENPP1 enzyme activity assay with pNP-TMP substrate was conducted as follows:
# Incubation of ENPP1 with compounds was set at 25° C. for 10 min.
# Absorbance at 405 nm was recorded immediately in kinetic mode by PerkinElmer 2300 Enspire multimode plate reader.
# For each inhibitor, the specific ENPP1 activity was calculated using the following equation: ENPP1 activity (pmol/min/μg)=Adjusted Vmax (OD405 nm/min)×conversion factor (pmol/OD405 nm)/amount of enzyme (μg)
# Adjusted Vmax=V0×(Km+(S))/(S). […] V0=(OD405 nm with ENPP1−OD405 nm ENPP1 blank)/minutes. OD405 nm was plotted, with blank subtracted, against time (minutes), the initial linear rate is V0. […]
# The slope is the conversion factor. The percent ENPP1 activity for each sample was calculated using the following equation:
# % enzyme activity=sample enzyme activity/MAX Activity×100%.
# To determine the IC50 for each compound, compound concentration values and percent enzyme activity values were inserted into GraphPad Prism (GraphPad Prism version 7.0 for Windows, GraphPad Software, La Jolla Calif. USA, www.graphpad.com), and Prism's Transform analysis was used to convert the x-axis values (compound concentration) to logarithms. A sigmoidal variable slope nonlinear regression analysis was performed using the following equation: Y=Bottom+(Top−Bottom)/(1+10^((Log IC50^−X)*HillSlope)).
Ki (ENPP1 [1]),Ki (ENPP1 [2]),Compound,tumor size (HGS tumor model)
< 1 nM,< 10 nM,"COc1cc2ncnc(NCc3ccc(B(O)O)cc3)c2cc1OC [Cpd. 7, (4-(((6,7-dimethoxyquinazolin-4-yl)amino)methyl)phenyl)boronic acid formic acid salt]",–
–,< 1 nM,"COc1cc2ncnc(-c3ccc(COS(N)(=O)=O)cc3)c2cc1OC [Cpd. 17, 4-(6,7-dimethoxyquinazolin-4-yl)benzyl sulfamate]",–
< 10 nM,–,"COc1cc2ncnc(Nc3ccc4c(c3)COB4O)c2cc1OC [compound 10, 5-((6,7-dimethoxyquinazolin-4-yl)amino)-1,3-dihydro-2,1-benzoxaborol-1-ol]",–
< 1 nM,< 10 nM,"COc1cc2ncnc(NCc3cccc(B(O)O)c3)c2cc1OC [compound 12, (3-(((6,7-dimethoxyquinazolin-4-yl)amino)methyl)phenyl)boronic acid]",–
< 5 nM,–,"COc1cc2ncnc(NCc3ccc(P(=O)(O)O)cc3)c2cc1OC [compound 13, (4-(((6,7-dimethoxyquinazolin-4-yl)amino)methyl)phenyl)phosphonic acid]",–
< 1 nM,< 5 nM,"COc1cc2ncnc(OCc3ccc(B(O)O)cc3)c2cc1OC [compound 19, (4-(((6,7-dimethoxyquinazolin-4-yl)oxy)methyl)phenyl)boronic acid]",–
< 5 nM,–,"COc1cc2ncnc(OCc3ccc4c(c3)B(O)OC4)c2cc1OC [compound 20, 6-(((6,7-dimethoxyquinazolin-4-yl)oxy)methyl)-3H-2,1-benzoxaborol-1-ol]",–
< 10 nM,–,"COc1cc2ncnc(OCc3ccc4c(c3)COB4O)c2cc1OC [compound 21, 5-(((6,7-dimethoxyquinazolin-4-yl)oxy)methyl)-3H-2,1-benzoxaborol-1-lol]",–

# Continued, compound first:
Compound,Ki (ENPP1 [1]),Ki (ENPP1 [2]),tumor size (HGS tumor model)
"C=CC(=O)N1CCN(CCCn2c(=O)c(-c3c(Cl)c(OC)cc(OC)c3Cl)cc3cnc(NC)nc32)CC1 [8-(3-(4-acryloylpiperazin-1-yl)propyl)-6-(2,6-dichloro-3,5-dimethoxyphenyl)-2-(methylamino)pyrido(2,3-d)pyrimidin-7(8H)-one]",–,–,55 mm3
"COc1cc2ncnc(N3CCC(CCCB(O)O)CC3)c2cc1OC [Cpd. 3, (3-(1-(6,7-dimethoxyquinazolin-4-yl)piperidin-4-yl)propyl)boronic acid]",< 1 nM,–,–
"COc1cc2ncnc(N3CCC(CP(=O)(O)O)CC3)c2cc1OC [Cpd. 4, ((1-(6,7-dimethoxyquinazolin-4-yl)piperidin-4-yl)methyl)phosphonic acid]",< 5 nM,–,–
"COc1cc2ncnc(N3CCC(CCCP(=O)(O)O)CC3)c2cc1OC [compound 6, (3-(1-(6,7-dimethoxyquinazolin-4-yl)piperidin-4-yl)propyl)phosphonic acid]",< 1 nM,< 5 nM,–
"COc1cc2ncnc(NCc3ccc(B(O)O)cn3)c2cc1OC [compound 8, (6-(((6,7-dimethoxyquinazolin-4-yl)amino)methyl)pyridin-3-yl)boronic acid]",< 10 nM,–,–
"COc1cc2ncnc(NCc3ccc(B(O)O)cc3F)c2cc1OC [compound 11, 4-(((6,7-dimethoxyquinazolin-4-yl)amino)methyl)-3-fluorophenylboronic acid formic acid salt]",–,< 10 nM,–
"COc1cc2ncnc(NCC3CCN(S(N)(=O)=O)CC3)c2cc1OC [compound 18, 4-(((6,7-dimethoxyquinazolin-4-yl)amino)methyl)piperidine-1-sulfonamide]",< 5 nM,–,–
"COc1cc2ncnc(NCc3c(F)cc(B(O)O)cc3F)c2cc1OC [compound 24, 4-(((6,7-dimethoxyquinazolin-4-yl)amino)methyl)-3,5-difluorophenylboronic acid hydrochloride]",–,< 10 nM,–
"COc1ccc2c(NCc3ccc(B(O)O)cc3)ncnc2c1 [compound 30, 4-(((7-methoxyquinazolin-4-yl)amino)methyl)phenylboronic acid]",–,< 5 nM,–
"COc1ccc2c(NCc3ccc(P(=O)(O)O)cc3)ncnc2c1 [compound 41, 4-(((7-methoxyquinazolin-4-yl)amino)methyl)phenylphosphonic acid formic acid salt]",–,< 5 nM,–
